Experimental data from US20250381129A1, “ANTI-AGING SKIN CARE COMPOSITION” (L'OREAL, priority 2024, published 2025).

How the values were obtained:
Conditions in all cases: topical, 5 consecutive days, HPR 0.01%, LA 3%, Eperuline 1% or 3%
[1] = test system: CSC-stimulated human ex-vivo skin; assay: H&E histological analysis of CSC-stimulated human ex-vivo skin
Procedure: (§1) Human ex-vivo skin was cultured with or without CSC and topically treated with either HPR, HPR-LA, HPR-Eperuline and HPR-LA-Eperuline for 5 days consecutive days (See FIG. 2B; See Table 4 for concentrations).
Fresh human ex-vivo skin was obtained through donor informed consent following abdominoplasty procedures. The tissues were obtained through BioIVT (Westbury, NY, USA) following an approved IRB protocol and shipped to a BSC level 2 research laboratory within 24 h after the procedure where the experiments took place. All experiments were performed in accordance with relevant guidelines and regulations. Donors included a person, person and person. Ex vivo tissues were prepared by excising the subcutaneous fat followed by punch biopsies with disposable 12 mm Skin Biopsy Punch (Fisher Scientific, NC9253254) and placed in 24-well transwell plates with permeable polyester membrane inserts (Fisher Scientific, 07-200-161). At least three biopsies were used for each condition.
Skin tissues were divided into groups of three and placed in the 24-well transwell plates, […] (Cell stimulation cocktail 500×(50-930-5)) was diluted to a 2× concentration in culture media and 650 uL was added to the well on the first day. […]

[2] = test system: IL-1A; assay: Quantification of secreted IL-1A in culture supernatant of CSC-stimulated human ex-vivo skin (ProcartaPlex/Luminex)
Procedure: as §1
(§2) Skin tissues were divided into groups of three and placed in the 24-well transwell plates, […] (Cell stimulation cocktail 500×(50-930-5)) was diluted to a 2× concentration in culture media and 650 uL was added to the well on the first day. Topical treatments were undertaken daily by pipetting 5 uL of treatments onto the tissue and using a Q-tip, spreading treatments across the tissue and left to absorb at room temperature for 30 minutes. Base media without stimulants served as the control group. Tissues were replenished with fresh media with the stimulant on day 1 and 3. On days 1, 3 and 5, supernatant from the culture was collected and aliquoted, and the tissues were bisected and fixed in 10% neutral buffered formalin (Fisher Scientific 22-126-347) for 3 h and then switched to 70% ethanol for storage until histology.
(§3) Tissue culture supernatant was collected at the end of the cultures to evaluate the secretion of several cytokines, chemokines, and growth factors. […]
(§4) Data were assessed using a two-way ANOVA with multiple comparison test. […]

[3] = test system: IL-23; assay: Quantification of secreted IL-23 in culture supernatant of CSC-stimulated human ex-vivo skin (ProcartaPlex/Luminex)
Procedure: as §1, §2, §3, §4

CC1=C(/C=C/C(C)=C/C=C/C(C)=C/C(=O)OCC(=O)C(C)(C)C)C(C)(C)CCC1 [HPR, hydroxypinacolone retinoate]
histological signs of inflammation (epidermal spongiosis, immune infiltration) [1]: exacerbated | secreted IL-1A [2]: significant increase | secreted IL-23 [3]: significant increase
